According to US6465519B2, “Uses of modafinil and its D/L enantiomers” (priority 1999, dated 2002):

Experiments:
[1] = tested on: Young female SD rats; test: Effect of Modafinil on uterus weight in female rats; type: in vivo; conditions: 200 mg/kg/day for 15 days
Method: EXPERIMENTAL ANIMAL: Young female SD rats of 25 days old were used. Food and drug administration was the sane as used in the Example 1.
EXPERIMENTAL PROTOCOL: 15 female rats for control were fed 3% starch paste 2 ml/day for 15 successive days. 15 female rats treated with Modafinil(prepared according to Example 1 in the U.S. Pat. No. 4,177,290) mixed with 3% starch paste for 200 mg/kg/day in 2 ml of starch paste a day. Animals were sacrificed on day 16 and the uterei were taken out. Every fresh uterus was weighed.

[2] = tested on: spermatozoa counts in rats; test: Effect of Modafinil on spermatogenesis in rats; type: in vivo, SD male rats; conditions: for mean number of spermatozoa per gram weight of sperm ± S.D.: SD male rats, sperm from epididymis tail
Method: EXPERIMENTAL ANIMALS: SD male rats, 2 months old, weighing 210 to 260 g, were used for this experiment. All the animals were fed in the laboratory for a week before starting the experiment for accommodative purpose. The animals were distributed randomly into 5 experimental groups, 10 in each group. The room temperature was kept at 20 to 25° C. 4 groups of rats were administrated with Modafinil and 1 group for control.
METHODS AND PROTOCOLS: In treated groups, various doses of Modafinil were given by gavage as 200, 400, 600 and 800 mg/kg/day in rats. Modafinil(prepared according to Example 1 in the U.S. Pat. No. 4,177,290) was mixed with 3% starch paste, 2 ml for each rat per day, gavage feeding for successive 30 days. The controlled animals received the 3% starch paste without drug, with same amount for 30 successive days. The morphology, motility and number of the spermatozoa of the animals in each group were observed and counted. On days 31, all animals were killed. Spermatozoa in the sperm taken from epididymis tail were counted; the testes and prostates were taken out. Histological sections were made and examined under microscope.

[3] = tested on: SD rats of both sexes; test: Effect of Modafinil on sexual ability in rats; type: in vivo; conditions: 200 mg/kg/day for 15 days
Method: EXPERIMENTAL ANIMALS: SD rats of both sexes were used and feeding methods of the drug were the same as in the Example 1.
EXPERIMENTAL PROTOCOL: 15 males and 15 females for control fed with 3% starch paste for 15 days while 15 males and 15 females were is treated with 200 mg/kg/day of Modafinil(prepared according to Example 1 in the U.S. Pat. No. 4,177,290) for 15 days. On day 16 evening, each special cage was distributed by chance with 1 male and 1 female rat couple. For the first 2 hours of coinhabitation, the numbers of sexual intercourse movement of male along with acceptance of female were counted.

[4] = cited from earlier work

NC(=O)C[S+]([O-])C(c1ccccc1)c1ccccc1 (stereo not drawn) [Modafinil, 2-[(Diphenylmethyl)sulfinyl]-N-Acetamide]
mean uterus weight relative to controls [1]: 158 % of that in Controls
mean uterus weight (Mean+S.D.) ([1]; fresh uterus on day 16): 0.418 ± 0.082 g
mean number of spermatozoa per gram weight of sperm ± S.D. ([2]; 200 mg/kg/day by gavage for 30 days): 819.8 ± 295.6 per gram weight of sperm
mean number of spermatozoa per gram weight of sperm ± S.D. ([2]; 400 mg/kg/day by gavage for 30 days): 1753.8 ± 540.6 per gram weight of sperm
mean number of spermatozoa per gram weight of sperm ± S.D. ([2]; 600 mg/kg/day by gavage for 30 days): 1706.0 ± 379.9 per gram weight of sperm
mean number of spermatozoa per gram weight of sperm ± S.D. ([2]; 800 mg/kg/day by gavage for 30 days): 1656.0 ± 165.8 per gram weight of sperm
histological examination: stages of normal spermatogenesis in the seminiferous tubules ([2]; Modafinil treated groups versus controls, testes sections): more distinct and regular than those in the controls
histological examination: cell degeneration during the course of spermatogenesis ([2]; Modafinil treated groups, testes sections): No cell degeneration was found
number of spermatozoa and motility ([2]; all Modafinil treated groups (200-800 mg/kg/day, 30 days), rats): remarkably increased with active motility
number of sexual intercourse (Mean±S.D.) ([3]; males and females treated, first 2 hours of coinhabitation on day 16): 5.0±1.2 times/2 hours/couple
mean number of sexual intercourse relative to control ([3]; rats): 161 % of the control
solubility in acetone ([4]; acetone): sparingly or slightly soluble
solubility in cyclohexane ([4]; cyclohexane): insoluble
solubility in methanol ([4]; methanol): sparingly or slightly soluble
solubility in water ([4]; water): insoluble
